Experimental data published in patent US7745390B2, “Antimicrobial peptides” (priority 2005, dated 2010).
Square brackets hold non-standard residues; d marks the D form. Ends that are not written are not given here. Peptide text beside a SMILES is read from it.

B1: recombinant granulysin: protein expressed by human cytotoxic T lymphocytes and natural killer cells, recombinant form (protein, UniProt P22749 23-145, looked up)
Granulysin: RLSPEYYDLARAHLRDEEKSCPCLAQEGPQGDLLTKTQELGRDYRTCLTIVQKLKKMVDKPTQRSVSNAATRVCRTGRSRWRDVCRNFMRRYQSRVTQGLVAGETAQQICEDLRLCIPSTGPL

Key:
[1] = test system: B. cereus; format: cell-based; conditions: pH 7.2
Summary of the method: (§1)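 Single-well growth assay: peptide + bacteria (~5×10^6 CFU/ml) in 10 mM phosphate pH 7.2/0.03% LB, 3 h 37 °C; add LB, overnight; OD600. MIC = lowest conc., no growth; IC50 = 50% growth vs medium.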

[2] = test system: E. coli DH5a; format: cell-based; conditions: DH5a, pH 7.2
Summary of the method: as §1

[3] = test system: Salmonella; format: cell-based, S. typhimurium; conditions: pH 7.2
Summary of the method: as §1

[4] = test system: human peripheral blood mononuclear cells (PBMC); experiment: Propidium iodide uptake in PBMC; format: cell-based; conditions: for PI uptake in normal human PBMC: 50 μM peptide, three hours
Excerpt: The second assay for effects on mammalian cells involved isolating human peripheral blood mononuclear cells (PBMC) and testing peptide induced uptake of propidium iodide (PI), a measure of membrane disruption. […] Thus, the vast majority of granulysin peptide derivatives are not toxic to mammalian cells even at high concentrations.

[5] = test system: U937 cells; experiment: Lysis of tumor cells: apoptosis of U937 by 3H-thymidine; conditions: U937, 50 μM peptide, 4-6 hours
Method: The effects were tested in two ways. First, peptides were tested for the ability to lyse tumor cells, as judged by induction of apoptosis in the monocyte-like cell line U937. U937 cells were cultured overnight in DMEM supplemented with 10% FCS plus 1 μCi/ml ^3H-thymidine. The next day, cells were washed and cultured in DMEM/10% FCS in the presence of 50 μM peptide for 4-6 hours. Cells were then harvested and ^3H-thymidine determined by beta-scintillation counting. Apoptosis results in DNA fragmentation, so the ^3H-thymidine is reduced in cells undergoing apoptosis.

[6] = test system: Jurkat cells; format: cell-based
Excerpt: (§2) To further investigate the contribution of secondary structure to function, additional Peptides G16-G19 (beyond peptides G1-G15, previously reported) were synthesized. Peptide G16 is identical to G13, except that a D-alanine residue was substituted for the L-alanine at position 30. […] In peptide G17, the two arginine residues in loop two are substituted with glutamine.
(§3) As shown above, substitution of the two arginine residues in Loop 2 with glutamine abrogates activity against Jurkat cells but only slightly affects lysis of S. typhimurium. Peptide G18 is identical to G14 except that a D-arginine was substituted at position 46. […] Peptide G19 incorporates both the R→Q substitutions as well as the D-arginine at position 46.

[7] = test system: S. typhimurium; experiment: Lysis of bacteria by counting bacterial colonies on plates; format: cell-based; conditions: colony counting
Excerpt: as §2, §3
The experiments described above characterizing the activity of granulysin peptides G1-G18 relied on counting bacterial colonies on plates. This assay is quite labor intensive and would not allow evaluation of many different compounds on a number of different microbes. Therefore, we optimized an assay in which the entire procedure could be completed in a single microtiter well. […] The OD at 600 nm is read on an ELISA plate reader. […]

[8] = test system: E. coli; conditions: previously reported; cited from earlier work

| Molecule | B. cereus MIC [1] | IC50 [1] | E. coli DH5a MIC [2] | IC50 [2] | IC50 [3] | Salmonella MIC [3] | toxicity against mammalian cells [4] | PI uptake in normal human PBMC [4] | apoptosis of tumor cells [5] | lysis of Jurkat cells [6] | lysis of bacteria (S. typhimurium) [7] | activity depending on ionic strength of media [8] |
| --- | --- | --- | --- | --- | --- | --- | --- | --- | --- | --- | --- | --- |
| CC[C@@H](C)[C@@H](NC(=O)[C@@H](CCCNC(=N)N)NC(=O)[C@@H](CCCNC(=N)N)NC(=O)[C@@H](CO)NC(=O)[C@@H](CCCNC(=N)N)NC(=O)[C@@H](Cc1ccc(O)cc1)NC(=O)[C@@H](CCCNC(=N)N)NC(=O)[C@@H](CCCNC(=N)N)NC(=O)[C@@H](CCSC)NC(=O)[C@@H](Cc1ccccc1)NC(=O)[C@@H](CCCNC(=N)N)NC(=O)[C@@H](CCCNC(=N)N)NC(=O)[C@@H](CO)NC(=O)[C@H](NC(=O)[C@@H](CCCNC(=N)N)NC(=O)[C@H](N)CCCNC(=N)N)C(C)C)C(=O)N[C@H](CCCNC(=N)N)C(=O)N[C@H](CCCNC(=N)N)C(=O)N[C@H](CC(C)C)C(=O)N[C@@H](C(=O)O)C(C)C [Peptide G12.34, rrvsrrfmrryrsrrirrlv] (H-[dR][dR][dV][dS][dR][dR][dF][dM][dR][dR][dY][dR][dS][dR][dR][dI][dR][dR][dL][dV]-OH) | 0.31 µM | 120 nM | 0.2 µM | 110 nM | 210 nM | 0.78 µM | somewhat lytic against mammalian cells | caused PI uptake in normal human PBMC | cause apoptosis of tumor cells | – | – | – |
| CSCC[C@@H](NC(=O)[C@@H](Cc1ccccc1)NC(=O)[C@@H](CCCNC(=N)N)NC(=O)[C@@H](CCCNC(=N)N)NC(=O)[C@@H](CO)NC(=O)[C@H](NC(=O)[C@@H](CCCNC(=N)N)NC(=O)[C@H](N)CCCNC(=N)N)C(C)C)C(=O)N[C@H](CCCNC(=N)N)C(=O)N[C@H](CCCNC(=N)N)C(=O)N[C@H](Cc1ccc(O)cc1)C(=O)N[C@H](CCCNC(=N)N)C(=O)N[C@H](CO)C(=O)N[C@H](CCCNC(=N)N)C(=O)N[C@H](CCCNC(=N)N)C(=O)N1CCC[C@@H]1C(=O)N[C@H](CCCNC(=N)N)C(=O)N[C@H](CCCNC(=N)N)C(=O)N[C@H](CC(C)C)C(=O)N[C@@H](C(=O)O)C(C)C [Peptide G12.35, rrvsrrfmrryrsrrprrlv] (H-[dR][dR][dV][dS][dR][dR][dF][dM][dR][dR][dY][dR][dS][dR][dR][dP][dR][dR][dL][dV]-OH) | 0.75 µM | 450 nM | 0.11 µM | < 78 nM | 210 nM | 0.32 µM | somewhat less toxic against mammalian cells | caused PI uptake in normal human PBMC | cause apoptosis of tumor cells | – | – | – |
| CSCC[C@H](NC(=O)[C@H](Cc1ccccc1)NC(=O)[C@H](CC(N)=O)NC(=O)[C@@H](CCCNC(=N)N)NC(=O)[C@H](CS)NC(=O)[C@@H](NC(=O)[C@H](CC(=O)O)NC(=O)[C@H](CCCNC(=N)N)NC(=O)[C@H](Cc1c[nH]c2ccccc12)NC(=O)[C@H](CCCNC(=N)N)NC(=O)[C@H](CO)NC(=O)[C@H](CCCNC(=N)N)NC(=O)CN)C(C)C)C(=O)N[C@@H](CCCNC(=N)N)C(=O)N[C@@H](CCCNC(=N)N)C(=O)O [Peptide G18, GRSRWRDVCrNFMRR] (H-GRSRWRDVC[dR]NFMRR-OH) | – | – | – | – | – | – | – | – | – | loses some activity against Jurkat cells | – | – |
| GQSQWRDVCrNFMRR [Peptide G19] | – | – | – | – | – | – | – | – | – | – | behaves identically to G115 | – |
| GRSRWRDVCRNFMRR [Peptide G14, GRSRWRDVCRNFMRR, reference compound] | 2.8 µM | 1750 nM | 1.37 µM | 890 nM | 890 nM | 1.37 µM | – | – | – | lyses both bacteria and mammalian cells | – | – |
| QRSVSNAaTRVCRTGQSQW [Peptide G17] | – | – | – | – | – | – | – | – | – | Neither peptide G16 nor G17 lysed Jurkat cells in an appreciable way | no longer exhibits activity against S. typhimurium | – |
| B1 | – | – | – | – | – | – | – | – | – | – | – | completely loses activity in media>50 mM salt |
